In US5508437A, “Analogs of tyrosine sulfate or tyrosine phosphate containing peptides” (Hoffmann-La Roche Inc., priority 1993, dated 1996):
Starred links: 1 amine or outer side, 2 acyl side, 3 side chain; linkers in the order of their positions; H or OH if unused. Positions of bridges follow the written chain, without caps; N, C: chain ends. Non-standard residues stand in square brackets, D forms with d. Residues, ends and D or L forms follow the SMILES beside them. *: point of attachment. Propanoyl(3-(4-HOOCCH2-Ph)) = O=C(O)Cc1ccc(CCC(=O)*)cc1; X4 = O=C([C@@H](Cc1ccc(Cc2nn[nH]n2)cc1)N[*:1])[*:2]; X6 = O=C([C@H](Cc1ccc(Cc2nnn[nH]2)cc1)N[*:1])[*:2]; X9 = O=C(C(Cc1ccc(-c2nnn[nH]2)cc1)N[*:1])[*:2]; X10 = O=C(CCc1ccc(-c2nn[nH]n2)cc1)*; X2 = O=C(CCc1ccc(Cc2nnn[nH]2)cc1)*; NMeF = CN[C@@H](Cc1ccccc1)C(=O)O; Nle = CCCC[C@H](N)C(=O)O

Columns and labels:
[1] = target: T1, rat pancreas (3H-CCK-8-(SO3 H) receptor binding) (Rattus norvegicus, UniProt P30551); assay: In vitro receptor binding assay, 3H-CCK-8-(SO3H), rat pancreas homogenate; details: 3H-CCK-8-(SO3H) 0.15 nM, 30 min at 25° C., rat pancreas homogenate; read-out: Rate Pancreas IC50 (concentration to inhibit 50% of specific 3H-CCK-8-(SO3H) binding)
T1 construct: pancreas approximately 0.100 mg protein in 1 mL final volume; from tissue; host or cells: rat pancreas membrane homogenate
T1 sequence (P30551 1-444): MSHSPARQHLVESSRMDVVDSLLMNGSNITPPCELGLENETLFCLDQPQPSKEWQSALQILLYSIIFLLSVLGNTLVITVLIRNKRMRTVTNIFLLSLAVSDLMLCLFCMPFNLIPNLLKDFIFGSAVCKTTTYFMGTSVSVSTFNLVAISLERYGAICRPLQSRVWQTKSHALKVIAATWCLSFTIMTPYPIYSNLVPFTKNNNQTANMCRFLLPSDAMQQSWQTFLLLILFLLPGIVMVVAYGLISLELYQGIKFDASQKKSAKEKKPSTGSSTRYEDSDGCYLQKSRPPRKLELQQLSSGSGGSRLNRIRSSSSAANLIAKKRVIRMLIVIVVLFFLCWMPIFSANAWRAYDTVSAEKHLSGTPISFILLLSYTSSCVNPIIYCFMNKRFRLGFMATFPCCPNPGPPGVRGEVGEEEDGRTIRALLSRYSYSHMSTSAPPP
Method: (§1) Frozen bovine striatum (approx. 5 g) or fresh rat pancreas (approx. 5 g) cleaned of fat and extraneous tissue were homogenized in HEPES buffer #1 (10 mM HEPES+130 mM NaCl+5 mM MgCl2, pH 7.4) using 35 parts buffer per 1 part tissue on a wet weight/volume basis (approx. 175 mL). The tissue was homogenized 2×for approx. 15 sec. at 0° C. using a Polytron homogenizer at a setting of 6. The tissue was isolated by centrifugation at 48,000× g for 10 min at 0° C. The resulting tissue pellet was resuspended in HEPES buffer #2 (10 mM HEPES+130 mM NaCl+5 mM MgCl2 +1 mg/L phenylmethanasulfonyl fluoride (PMSF)+200 mg/L Bacitracin): 1 part striatal tissue (original wet weight) per 80 parts buffer and 1 part pancreas tissue (original wet weight) per 500 to 1000 parts buffer.
(§2) Incubation was initiated by combining various concentrations of native CCK-8 or peptides of the invention with ^3 H-CCK-8-(SO3 H) (final conc.=0.15 nM) and tissue homogenate (striatum approximately 0.26 mg protein in 2 mL final volume; pancreas approximately 0.100 mg protein in 1 mL final volume). Samples were incubated for 30 min at 25° C. and the incubation terminated by pouring the mixture onto a pre-wetted Whatman GF/B filter on a Sandbeck Vacuum Filtration Manifold. The incubation tubes were washed with 2×3 mL of ice-cold HEPES Buffer #2 and the wash filtered through the GF/B filter. The filter was air dried for 10 min and then placed in a scintillation vial with 12 mL of DuPont/NEN Aquasol scintillation cocktail. The vials were shaken overnight and then counted using a liquid scintillation spectrometer. Non-specific binding was determined in the presence of 1 micromolar native CCK-8 and subtracted from all samples to determine specific binding. The concentration of peptide necessary to inhibit 50% of total specific H-CCK-8-(SO3 H) binding (IC50 value) was determined by log-probit analysis.

[2] = test system: Male Sprague-Dawley (CD) rats; assay: Two-Meal Feeding Assay; assay type: in vivo; details: rat
Method: Male Sprague-Dawley (CD) rats weighing 180-200 grams (Charres River Breeding Laboratories) were acclimated to a 12 h light/dark cycle (6 a.m. to 6 p.m.) in a room kept at 22° C. They were subsequently fasted for two days, weighed, placed in individual cages, and a four-day period of meal training was begun. During this time the rats were given ground laboratory chow (Purina Lab Chow) in jars for one hour from 9:00 a.m. until 10:00 a.m., the jars were removed from 10:00 a.m. to 12:00 p.m., and placed back in the cages from 12:00 until 1:00 p.m. Under this `1-2-1` meal feeding regime, most rats learn to eat approximately as much per day during the two hours they have access to food as rats which have food ad libitum over the entire 24-hour day. On the fourth day, the rats were weighed again, and any which lost more than five grams body weight were excluded from the test. The animals were then distributed into experimental (n=5 to 6) and control groups (n=6-12), but not matched for body weight.
Peptides of the invention were suspended either in saline, if soluble, or in 0.5% DMSO/saline, if insoluble, at concentrations of 0 to 320 μg/mL/kg body weight and were administered intraperitoneally 15 min before the first meal on day 5 of meal feeding. The rats were then given their meals as they had been during the previous four days, and the food cups were weighed both before and after each meal to determine food consumption. Food intake was expressed as a mean and standard error of the mean in percent of control values for the various groups. The treated groups were compared to the control groups by t-test analysis.

[3] = target: T2, Bovine Striatum (3H-CCK-8-(SO3 H) receptor binding) (Bos taurus, UniProt P79266); assay: In vitro receptor binding assay, 3H-CCK-8-(SO3H), bovine striatum homogenate; details: 3H-CCK-8-(SO3H) 0.15 nM, 30 min at 25° C., bovine striatum homogenate; read-out: Bovine Striatum IC50 (concentration to inhibit 50% of specific 3H-CCK-8-(SO3H) binding)
T2 construct: tissue homogenate (striatum approximately 0.26 mg protein in 2 mL final volume); from tissue; host or cells: bovine striatum membrane homogenate
T2 sequence (P79266 1-454): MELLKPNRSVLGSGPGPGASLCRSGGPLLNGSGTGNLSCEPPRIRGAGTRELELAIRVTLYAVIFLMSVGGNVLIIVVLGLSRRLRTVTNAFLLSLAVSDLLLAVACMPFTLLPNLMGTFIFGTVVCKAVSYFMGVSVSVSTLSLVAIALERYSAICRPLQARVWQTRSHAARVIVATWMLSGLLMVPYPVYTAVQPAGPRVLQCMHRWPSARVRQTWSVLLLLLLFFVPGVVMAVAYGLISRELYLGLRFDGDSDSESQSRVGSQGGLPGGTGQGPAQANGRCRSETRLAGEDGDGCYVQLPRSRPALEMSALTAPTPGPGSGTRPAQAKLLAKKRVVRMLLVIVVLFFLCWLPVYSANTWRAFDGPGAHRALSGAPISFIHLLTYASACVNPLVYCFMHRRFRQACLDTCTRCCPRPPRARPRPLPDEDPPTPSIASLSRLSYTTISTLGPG
Method: as §1, §2

[4] = dose 32 Microgram/kg intraperitoneally 15 min before first meal
[5] = dose 320 Microgram/kg intraperitoneally 15 min before first meal
[6] = dose 10 Microgram/kg intraperitoneally 15 min before first meal
[7] = dose 100 Microgram/kg intraperitoneally 15 min before first meal

SMILES | IC50 [1] | IC50 [3] | further results
CSCC[C@@H]1NC(=O)[C@H](Cc2c[nH]c3ccccc23)NC(=O)CNC(=O)[C@@H](NC(=O)C(Cc2ccc(-c3nnn[nH]3)cc2)NC(C)=O)CCCCNC(=O)C[C@@H](C(=O)N(C)[C@@H](Cc2ccccc2)C(N)=O)NC1=O (some centres unmarked) [Example 57] (Ac-[X9]KGWMD[NMeF]-NH2; lactam 2-6) | 1100 nM | 580 nM | Food Intake 1st Meal [2, 4]: 75 ± 6 % of Control; Food Intake 2nd Meal [2, 4]: 160 ± 14 % of Control; Food Intake 1st Meal [2, 5]: 36 ± 3 % of Control; Food Intake 2nd Meal [2, 5]: 148 ± 6 % of Control
CCCC[C@H](NC(=O)[C@H](Cc1c[nH]c2ccccc12)NC(=O)CNC(=O)[C@H](CCCC)NC(=O)[C@@H](Cc1ccc(Cc2nn[nH]n2)cc1)NC(C)=O)C(=O)N[C@@H](CC(=O)O)C(=O)N(C)[C@@H](Cc1ccccc1)C(N)=O [Example 64, Ac-(D)-Phe(4-CH2 -tetrazole)-Nle-Gly-Trp-Nle-Asp-N-methyl-Phe-NH2] (Ac-[X4][Nle]GW[Nle]D[NMeF]-NH2) |  |  | Food Intake 1st Meal [2, 6]: 112 ± 10 % of Control; Food Intake 2nd Meal [2, 6]: 102 ± 9 % of Control; Food Intake 1st Meal [2, 4]: 79 ± 5 % of Control; Food Intake 2nd Meal [2, 4]: 148 ± 12 % of Control; Food Intake 1st Meal [2, 7]: 56 % of Control; Food Intake 2nd Meal [2, 7]: 173 ± 5 % of Control; Food Intake 1st Meal [2, 5]: 21 ± 6 % of Control; Food Intake 2nd Meal [2, 5]: 207 % of Control
CCCC[C@H](NC(=O)CCc1ccc(Cc2nnn[nH]2)cc1)C(=O)NCC(=O)N[C@@H](Cc1c[nH]c2ccccc12)C(=O)N[C@@H](CCCC)C(=O)N[C@@H](CC(=O)O)C(=O)N(C)[C@@H](Cc1ccccc1)C(N)=O [Example 66, Desamino-Phe(4-CH2 -tetrazole)-Nle-Gly-Trp-Nle-Asp-N-methyl-Phe-NH2] (X2-[Nle]GW[Nle]D[NMeF]-NH2) | 710 nM | 160 nM | 
CSCC[C@@H]1NC(=O)[C@H](Cc2c[nH]c3ccccc23)NC(=O)CNC(=O)[C@@H](NC(=O)CCc2ccc(-c3nn[nH]n3)cc2)CCCCNC(=O)C[C@@H](C(=O)N(C)[C@@H](Cc2ccccc2)C(N)=O)NC1=O [Example 68] (X10-KGWMD[NMeF]-NH2; lactam 1-5) | 2900 nM | 1400 nM | 
CCCC[C@H](NC(=O)CCc1ccc(CC(=O)O)cc1)C(=O)NCC(=O)N[C@@H](Cc1c[nH]c2ccccc12)C(=O)N[C@@H](CCCC)C(=O)N[C@@H](CC(=O)O)C(=O)N(C)[C@@H](Cc1ccccc1)C(N)=O [Example 70, Desamino-Phe(4-CH2 COOH)-Nle-Gly-Trp-Nle-Asp-N-methyl-Phe-NH2] ({Propanoyl(3-(4-HOOCCH2-Ph))}-[Nle]GW[Nle]D[NMeF]-NH2) | 330 nM | 200 nM | 
CCCC[C@H](NC(=O)CCc1ccc(CC(=O)O)cc1)C(=O)N[C@H](C)C(=O)N[C@@H](Cc1c[nH]c2ccccc12)C(=O)N[C@@H](CCCC)C(=O)N[C@@H](CC(=O)O)C(=O)N(C)[C@@H](Cc1ccccc1)C(N)=O [Example 71, Desamino-Phe(4-CH2 COOH)-Nle-(D)Ala-Trp-Nle- Asp-N-methyl-Phe-NH2] ({Propanoyl(3-(4-HOOCCH2-Ph))}-[Nle][dA]W[Nle]D[NMeF]-NH2) | 1800 nM | 1400 nM | 

The next lines start with results.

IC50 [1] | IC50 [3] | SMILES | further results
260 nM | 69 nM | CCCC[C@H](NC(=O)[C@H](Cc1ccc(Cc2nnn[nH]2)cc1)NC(C)=O)C(=O)NCC(=O)N[C@@H](Cc1c[nH]c2ccccc12)C(=O)N[C@@H](CCCC)C(=O)N[C@@H](CC(=O)O)C(=O)N(C)[C@@H](Cc1ccccc1)C(N)=O [Example 65, Ac-Phe(4-CH2 -tetrazole) -Nle-Gly-Trp-Nle-Asp- N-methyl-Phe-NH2] (Ac-[X6][Nle]GW[Nle]D[NMeF]-NH2) | 
1.8 nM | 3.2 nM | CSCC[C@H](NC(=O)CCc1ccc(CC(=O)O)cc1)C(=O)NCC(=O)N[C@@H](Cc1c[nH]c2ccccc12)C(=O)N[C@@H](CCSC)C(=O)N[C@@H](CC(=O)O)C(=O)N(C)[C@@H](Cc1ccccc1)C(N)=O [Example 69, Desamino-Phe(4-CH2 -COOH)-Met-Gly-Trp-Met-Asp-N-methyl-Phe-NH2] ({Propanoyl(3-(4-HOOCCH2-Ph))}-MGWMD[NMeF]-NH2) | 
